Assays:
[1] = system: B. stearothermophilus spores; assay: Suspension sterilization: survivor/reduction curves for spores in germicide; assay type: cell-based, Bacillus stearothermophilus; settings: 40° C.
Description: The effectiveness of a sterilant is defined in terms of decimal reduction time (D-value). This is the exposure time (t) used under certain conditions to cause one log reduction (n) (90%) of the initial population. A suspension is expected to follow a predictable death rate regarding a plot of the amount of survivors over time. The negative reciprocal of the slope of regression lines of survivor curves gives the D-value where t=D×n n=[…]
(§1) In order to determine the reduction in spores after processing with cleaning agents, an effective and consistent method was developed. […] It was determined that residual hydrogen peroxide inhibited the growth at concentrations of 0.6% or higher for TSA plates and 6% or higher for blood plates (FIG. 12). It is believed that the catalase contained in the blood agar plates inactivated the hydrogen peroxide. […] Even though the blood agar plates allowed for dilutions as low as 1:10, the titre used was too low to detect more than a 3 log reduction in the process limiting the data collection for the survivor curves.
To ensure consistency, each vial was vortexed before each replicate and all of the material was removed from the pipette tip onto the plate. Disposable plate spreaders were used to prevent cross contamination. The moisture needed to be maintained at a certain level because the plates would dry out at 60° C., but if there was too much moisture the bacteria would streak across the plate and prevent an accurate count. The first procedure implemented was propping the plates open in a laminar flow hood to allow excessive moisture to dry. The second method employed was placing the plates in a beaker with a porous covering to trap some moisture while allowing the excess to evaporate.
Hydrogen peroxide at a concentration of 6% was used at temperatures of 40, 45 and 50° C. to calculate a curve for modeling the temperature effects on spore kill. […] Samples were removed and immediately placed in an ice bath at 10, 15, 20 and 30 min. The vial was well-mixed on a vortex, and then diluted 1:10 in series before plating.
Peracetic acid at concentrations of 0.1%, 0.05% and 0.005% were used only at 40° C. to calculate a curve for modeling the concentration effects on spore kill. […] Samples were removed and immediately placed in an ice bath at various time points depending on the concentration. The vial was well-mixed on a vortex, and then diluted 1:10 in series before plating.
Typically, a survivor curve is constructed with the initial population at time zero and the resultant populations at various time points. Since not all data points could be completed in the same day, some reduction curves were constructed to compare log reduction in the controls for each experiment over time. This normalized the data to its own experimental episode.

[2] = system: Bacillus stearothermophilus; assay: Growth inhibition by residual germicide on TSA and blood agar plates; assay type: cell-based; settings: within the processing concentrations, blood agar plates (FIG. 13)
Experimental: as §1

collagen = assay: Collagen denaturation, quantitative enzyme digestion assay (matrix integrity)
Experimental: One of the major structural components of the extracellular matrix that gives veins their strength is collagen. Damage to collagen can result in mechanical failures such as increased compliance or aneurism formation. It can also result in a cellular response due the exposure of the triple helix when stability is compromised. The amount of collagen denaturation was assessed to evaluate processing conditions with a quantitative enzyme digestion assay. […] Digested and undigested fractions are separated and hydrolyzed with concentrated hydrochloric acid (HCl) to release free amino acids from each fraction. Following neutralization of the acid in 1 N NaOH, levels of hydroxyproline (an amino acid present in high concentrations in collagen) are assessed in each fraction by a calorimetric method at a wavelength of 550 nm (Chloramine T binding, and reduction of the substrate DAB to a colored end product). The level of denatured collagen in a given sample is then expressed as a percent of the trypsin soluble fraction to the sum of both trypsin soluble and trypsin insoluble fractions.
Achieving the appropriate log reduction should not come at the expense of the integrity of the extracellular matrix. […] The effect of hydrogen peroxide at 6% at 40° C. and 50° C. on collagen was compared to PAA at 0.1% at the same specified temperatures.
Digested and undigested fractions are separated and hydrolyzed with concentrated hydrochloric acid (HCl) to release free amino acids from each fraction. Following neutralization of the acid in 1 N NaOH, levels of hydroxyproline (an amino acid present in high concentrations only in collagen) are assessed in each fraction by a calorimetric method (Chloramine T binding, and reduction of the substrate DAB to a colored end product). The level of denatured collagen in a given sample is then expressed as a percent of the trypsin soluble fraction to the sum of both trypsin soluble and trypsin insoluble fractions.

[3] = Bradford Assay of nonspecific proteins in collagenase digested vein samples; set-up: species or system human; settings: 0.1% peracetic acid versus 6% hydrogen peroxide (FIGS. 29, 30)
Experimental: In a further study, the efficiency of peracetic acid (PAA) versus hydrogen peroxide (HP) was investigated. Samples were treated in either 0.1% PAA or 6% HP and were exposed for varying lengths of time at varying temperatures.
Without wishing to be bound by theory, it is believed that the peracetic acid opens the collagen matrix up to allow for greater penetration of the tissue. It also believed to break down the proteins better than hydrogen peroxide. […] The Bradford Assay (Bradford, 1976) is used to quantify nonspecific proteins in collagenase digested vein samples. The Bradford Assay is a general protein assay, is based on an absorbance shift in a dye (Coomassie brilliant blue G-250 dye (CBBG)). CBBG has an absorbance shift when bound to arginine and hydrophobic amino acid residues (e.g., tryptophan, tyrosine, histidine and phenylalanine) present in protein. The reduction in antigenicity is correlated in the immunohistochemical staining (e.g., groups L and K from Example 5) and the histopathology scores (e.g., prototype recipe from Example 4).

[4] = system: class I MHC antigens in human saphenous vein; assay: Immunohistochemical stain for class I MHC antigens after decellularization (Example 1); settings: high concentrations and high temperatures
Experimental: The effectiveness of cell and cellular debris removal was evaluated using two detergent and two enzyme solutions at various concentrations (Table 2). […] One treatment group combined Triton-X 100 with sodium deoxycholate. Trypsin alone at 0.05% (w/v) or 1.0% (w/v) and in combination with 0.02% (w/v) EDTA were the enzyme solutions used in the decellularization process.
Samples were then rinsed in PBS at room temperature for 10 minutes while continuously shaking. Following the rinse step, the samples were cut in half and either prepared for histology or immunohistochemistry.
Immunohistochemistry was used to determine the level of antigens remaining in the tissue after treatment. […] Samples were prepared in frozen blocks and sectioned with a cryostat. The sections were thawed and then rinsed for blocking and antibody staining. Sections were incubated for 30 minutes in primary antibody (mouse anti-HLA-ABC class I MHC) solution and then for anther 30 minutes in diluted biotinylated secondary antibody (Vector ABC Elite kit) solution. An enzyme substrate, NovaRed (Vector), was used to stain the antibodies red. The counter stain was hematoxylin providing a blue contrast.
A Zeiss Axiophot 2 microscope with a motorized Ludl scanning stage was used with tile field mapping at 5× to capture the entire image in one frame. Particle analysis was performed in Image J to determine the ratio of antigen staining (red) to the total tissue sample.
A blue and green filter was applied to only allow red to pass. Obvious areas of antigen staining were removed due to this variation in red hue. […] All samples were compared to their negatives for a percentage of red staining.
This procedure was applied to all images. […] The treatment groups are labeled according to the detergent or enzyme used followed by the processing conditions. For the Trypsin and Trypsin+EDTA groups, the concentrations ranged from 0.05% (L) to 1.0% (H), the processing temperatures were 37° C. (L), 48° C. (M) and 55° C. (H), and the processing times were 6 hrs (L), 17 hrs (M) and 24 hrs (H).

human saphenous vein = assay: Histology (H&E) for cellularity and matrix (Example 1); settings: 1.0% Cholate at 48° C.
Experimental: Samples of human saphenous veins 10 mm in length were placed in each of the test solution at 37° C. or 48° C. for both 6 and 24 hours while continuously shaking. Samples were then rinsed in PBS at room temperature for 10 minutes while continuously shaking. Following the rinse step, the samples were cut in half and either prepared for histology or immunohistochemistry.
Samples were placed in 10% buffered formalin immediately following the rinse step and remained there for at least 24 hours before further preparation. Then, the samples were embedded in paraffin and stained with hematoxylin and eosin (H&E) to determine cellularity.
The results of the immunohistochemical stain were compared to histology slides stained for cellularity (FIGS. 7 to 10). […] The extracellular matrix is preserved in each segment except with 1.0% Cholate at 48° C.

[5] = Biocompatibility of the detergent injected in a rat; assay type: in vivo, Sprague Dawley rats; settings: 0.25%, 0.1%, 0.01%, 0.001% in four sites, 6 weeks after surgery
Experimental: Four implants from each group go into one rat for a total of 7 rats and 28 implant sites. An eighth rat is injected in four sites with decreasing concentrations of sodium deoxycholate (0.25%, 0.1%, 0.01%, 0.001%) to measure the biocompatibility of the detergent.

Molecule	D-value ([1]; 0.005% PAA, spores in suspension (FIG. 19))	D-value ([1]; 0.05% PAA, spores in suspension (FIG. 18))	time for a 6 log reduction ([1]; 0.05% PAA, suspension)	growth inhibition by residual germicide [2]	amount of digestible hydroxyproline (collagen; 0.1% PAA (FIGS. 31, 32))	ratio of degraded collagen compared to untreated controls (collagen; 6% hydrogen peroxide, 0.1% PAA, 50° C., one hour (FIG. 22))	efficiency in breaking down proteins [3]	removal of class I MHC staining [4]	staining [4]	extracellular matrix in histology (human saphenous vein)	collagen degradation compared to untreated controls (collagen; Triton 1.0%, Cholate 0.25%, 48° C., 24 hours, constant agitation (FIG. 11))	response to injected detergent [5]
CC(=O)OO [peracetic acid]	6.45	1.90	11 minutes	no inhibition was observed	did not increase the amount of digestible hydroxyproline	significantly altered matrix properties	more efficient than 6% hydrogen peroxide in significantly breaking down proteins	–	–	–	–	–
sodium deoxycholate	–	–	–	–	–	–	–	approximately 100%	approximately 0%	large holes within the venous wall and separation between the fibers	A significant degradative effect was not seen	No response was noted

Reference: patent US7658706B2, “Vascular graft sterilization and decellularization” (RTI Biologics, Inc., priority 2005, dated 2010)
